Experimental data published in PMC11279551, “Pharmacokinetics and Enterohepatic Circulation of 2-(Quinoline-8-carboxamido)benzoic Acid (2-QBA) in Mice” (Pharmaceutics, 2024).
Like-named read-outs stand apart in the source and are kept apart here.

How the values were obtained:
[1] = Stability of 2-QBA in mouse plasma (QC samples); assay type: in vitro ADME; conditions: for Freeze-thaw cycle stability, Accuracy / Bench-top stability, Accuracy: mouse plasma; for Freeze-thaw cycle stability, Accuracy: 3 cycles; for Bench-top stability, Accuracy: 25 °C for 6 h; for Autosampler stability, Accuracy: prepared plasma samples, 6 °C for 24 h
Method: The stability of 2-QBA in mouse plasma was tested in terms of its benchtop stability, freeze–thaw stability, and autosampler stability. In all stability tests, three sets of QC samples (3, 100, and 400 ng/mL) were prepared.
The benchtop stability was tested by incubating the samples at 25 °C for 6 h. For the freeze–thaw stability, the samples were placed at −80 °C for over 12 h for freezing and thawed at 25 °C for 6 h as one cycle; the same protocol was repeated for three cycles. Finally, the autosampler stability was tested by placing the prepared QC samples in the autosampler at 6 °C for 24 h. After analyzing all of the stability test samples, the concentrations were calculated using freshly prepared calibration standards.

[2] = Pharmacokinetics after PO administration in mice; assay type: in vivo; conditions: for BA: vs IV AUCinf at 1 mg/kg; for AUC(0-t): read-out: AUC24h; for Cmax: read-out: Cmax,1; for Tmax: po
Method: (§1) Male ICR mice (7 weeks old, […]; Samtako, Osan, Korea) were acclimated to the animal facility at Kyungpook National University for one week with free access to animal chow and water. In the per oral administration (PO) groups, the mice were fasted for 14–16 h prior to the administration of 2-QBA.
(§2) After the PO administration of 2-QBA (2 mg/kg in 5 mL of saline containing 10% DMSO) using an oral gavage for 10 mice, blood samples were collected at 0.25, 0.75, 2, and 8 h from 5 mice and at 0.5, 1, 4, and 24 h from another 5 mice. Ten mice in each group were administered 5 mg/kg or 15 mg/kg of 2-QBA using an oral gavage and blood was drawn using the same protocol described above. All blood samples were centrifuged at 13,000× g for 1 min and the supernatant plasma (30 μL) was stored at −80 °C until the analysis of the 2-QBA. For the analysis of 2-QBA in the plasma samples, 120 μL of IS solution (berberine 1 ng/mL in acetonitrile) was added to plasma samples (30 μL). The mixture was vigorously vortexed for 5 min and then centrifuged at 13,000× g for 5 min. The supernatant was transferred to autosampler vials. Subsequently, a 3 μL aliquot was injected into the LC-MS/MS system.
(§3) WinNonlin 5.1 software (Pharsight Co., Mountain View, CA, USA) was used to calculate the pharmacokinetic parameters. AUClast and AUCinf indicate the areas under the plasma concentration curve from 0 h to the last sample and from 0 h to infinity, respectively; these were estimated using the linear trapezoidal method. T1/2 is the elimination half-life, which is estimated from the elimination coefficient (k) (i.e., 0.693/k), and MRT is the mean residence time. CL is the total clearance, which is calculated by dividing the dose by AUCinf. Vdss is the volume of the distribution at a steady state, calculated from MRTxCL. CLrenal and CLfeces are calculated by dividing the amount excreted in urine and feces by the AUCinf, respectively. CLmetabolism is calculated by subtracting CLrenal and CLfeces from CL. Cmax and Tmax are the maximum plasma concentration and time to reach Cmax, respectively. BA is calculated by dividing the dose-normalized AUCinf for PO administration (AUCinf/PO dose) by the dose-normalized AUCinf for IV administration (AUCinf/IV dose). All data are expressed as the mean ± standard deviation (SD).

[3] = Pharmacokinetics after IV administration in mice; assay type: in vivo; conditions: plasma; for AUC(0-inf) / MRT / clearance / half-life / AUC(0-t) / Vd: male, ICR, mouse; for AUC(0-t): read-out: AUC24h; for Vd: read-out: Vdss
Method: as §1
For intravenous (IV) administration, 2-QBA (0.5 mg/kg in 3 mL of saline containing 10% DMSO) was injected via the tail vein for eight mice that were randomly divided into two groups for sparse sampling. Blood samples were collected via the jugular vein at 0.083, 0.5, 2, and 8 h from 4 mice and at 0.25, 1, 4, and 24 h from another 4 mice. Eight mice were administered 1 mg/kg of 2-QBA using the same protocol described above.
as §2, §3

[4] = male, ICR, mouse, plasma, PO 2 mg/kg
[5] = male, ICR, mouse, plasma, PO 5 mg/kg
[6] = male, ICR, mouse, plasma, PO 15 mg/kg

## O=C(O)c1ccccc1NC(=O)c1cccc2cccnc12 [2-QBA, 2-(quinoline-8-carboxamido)benzoic acid]
[1]; nominal 100 ng/mL
  Freeze-thaw cycle stability, Accuracy: 104.3%
  Bench-top stability, Accuracy: 89.14%
  Autosampler stability, Accuracy: 103.1%
[1]; nominal 400 ng/mL
  Freeze-thaw cycle stability, Accuracy: 106.4%
  Bench-top stability, Accuracy: 91.55%
  Autosampler stability, Accuracy: 108.7%
[1]; nominal 3 ng/mL
  Bench-top stability, Accuracy: 98.51%
  Autosampler stability, Accuracy: 109.5%
[2]
  mean absorption time (MRTPO–MRTIV): 8.02 h
[2]; PO 2 mg/kg
  AUC24h/dose: 684.2 ± 340.3 ng·h/mL/mg/kg
  AUCinf/dose: 712.7 ± 348.0 ng·h/mL/mg/kg
  BA: 68.3%
[2]; PO 5 mg/kg
  AUC24h/dose: 702.9 ± 169.2 ng·h/mL/mg/kg
  AUCinf/dose: 873.7 ± 186.9 ng·h/mL/mg/kg
  BA: 83.7%
[2]; PO 15 mg/kg
  AUC24h/dose: 705.5 ± 182.3 ng·h/mL/mg/kg
  AUCinf/dose: 734.7 ± 176.3 ng·h/mL/mg/kg
  BA: 70.4%
[2]; [4]
  AUC(0-inf): 1430 ± 696 ng·h/mL
  MRT: 12 ± 4.91 h
  half-life: 7.82 ± 1.76 h
  AUC(0-t): 1370 ± 680 ng·h/mL
  Cmax: 283 ± 174 ng/mL
[2]; [5]
  AUC(0-inf): 4370 ± 934 ng·h/mL
  MRT: 13.7 ± 3.14 h
  half-life: 9.91 ± 1.92 h
  AUC(0-t): 3510 ± 846 ng·h/mL
  Cmax: 752 ± 319 ng/mL
[2]; [6]
  AUC(0-inf): 11000 ng·h/mL
  MRT: 7.04 ± 0.76 h
  half-life: 5.58 ± 1.24 h
  AUC(0-t): 10600 ng·h/mL
  Cmax: 2460 ± 696 ng/mL
[2]; male, ICR, mouse, plasma, PO 2.0, 5.0 and 15 mg/kg, read-out: absolute oral bioavailability (BA) range
  bioavailability: 68.3 to 83.7%
[2]; male, ICR, mouse, plasma, 2 mg/kg, PO 2 mg/kg, read-out: Tmax,1
  Tmax: 0.2 ± 0.11 h
[2]; male, ICR, mouse, plasma, 2 mg/kg, PO 2 mg/kg, read-out: Tmax,2
  Tmax: ~5.6 h
[2]; male, ICR, mouse, plasma, 5 mg/kg, PO 5 mg/kg, read-out: Tmax,1
  Tmax: 0.25 h
[2]; male, ICR, mouse, plasma, 15 mg/kg, PO 15 mg/kg, read-out: Tmax,1
  Tmax: 0.3 ± 0.11 h
[2]; male, ICR, mouse, plasma, PO 2-15 mg/kg, read-out: Tmax,1 (range over doses)
  Tmax: 0.2 to 0.3 h
[2]; male, ICR, mouse, plasma, PO 2-15 mg/kg, read-out: Tmax,2 (range over doses)
  Tmax: 3.5 to 5.6 h
[3]; IV 0.5 mg/kg
  AUC24h/dose: 824.7 ± 64.1 ng·h/mL/mg/kg
  AUCinf/dose: 835.6 ± 64.6 ng·h/mL/mg/kg
  AUC(0-inf): 418 ± 32.3 ng·h/mL
  MRT: 3.88 ± 1.58 h
  clearance: 20 ± 1.53 mL/min/kg
  half-life: 4.61 ± 2.19 h
  AUC(0-t): 412 ± 32.1 ng·h/mL
  Vd: 4.73 ± 2.15 L/kg
[3]; IV 1.0 mg/kg
  AUC24h/dose: 996.7 ± 146.6 ng·h/mL/mg/kg
  AUCinf/dose: 1044 ± 174.9 ng·h/mL/mg/kg
  AUC(0-inf): 1040 ± 175 ng·h/mL
  MRT: 3.03 ± 1.11 h
  clearance: 16.3 ± 2.81 mL/min/kg
  half-life: 5.26 ± 1.31 h
  AUC(0-t): 997 ± 147 ng·h/mL
  Vd: 2.88 ± 0.72 L/kg
